Patent publication US20020010333A1, “Use of xanthine derivatives for reducing the pathological hyperreactivity of eosinophilic granulocytes, novel xanthine compounds and process for their preparation” (Hoechst Aktiengesellschaft, priority 1994, published 2002)
Values after ≈ are worked out from the molar mass of the structure shown. Read-outs that look alike come from different tables or passages of the source.

Columns and labels:
[1] = system: ovalbumin-induced asthma attack; experiment: Inhibition of the antigen-induced early-phase reaction (ovalbumin-induced bronchospasm, Konzett-Rössler) in the presensitized guinea pig; type: in vivo, albino guinea pigs; conditions: Cavia porcellus, iv, protected = asthma reaction reduced by at least 40% relative to control; for responders at 10 mg/kg: 10 mg/kg i.v. 15 minutes before antigen; for responders at 25 mg/kg: 25 mg/kg i.v. 15 minutes before antigen
Description: Albino guinea pigs of both sexes having a body weight of 180 to 220 g were sensitized on two successive days by subcutaneous administration of 1 mg of ovalbumin (0.1% strength dissolved in physiological saline solution) in each case. 20 days later, the experiment was carried out according to the method of Konzett and […] (Arch. exp. Path. und Pharmak. (1940) 195: 75). For this purpose, the animals were anesthetized with pentobarbital, artificially ventilated, treated with alcuronium chloride to exclude spontaneous respiration and divided into groups of 6 animals in each case. By means of intravenous administration of ovalbumin as an antigen in a dose of 1 mg/kg, a long-lasting asthma attack was induced as a result of an acute bronchospasm induced by mediators in the course of the asthmatic early reaction, the intensity of which was quantified by means of the contraction height in the thoracogram. The test preparations were likewise administered intravenously 15 minutes before antigen provocation. Instead of this, the animals of the control group received pure 0.9% strength saline solution. To assess the action of the preparation, the number of animals of the respective collective in which the asthma reaction was reduced by at least 40% relative to the control animals was determined.

[2] = system: PAF-induced contraction of isolated lung strips; experiment: Anticonstrictive action against PAF-induced contraction of isolated lung strips; parameters: species or system albino guinea pigs; conditions: Cavia porcellus; guinea pig lung strips, PAF 10^−9 g/ml, n=6; read-out: Anticonstrictive action (IC50) PAT lung
Excerpt: (§1) The inhibitory action of the compounds of formula I on the proinflammatory early-phase mediators histamine, PAF and leukotriene D4 (LTD4) was investigated on isolated segments of the respiratory tract organs of albino guinea pigs, the inhibition of the contractions which can be caused by these mediators being used as measurement parameters.
(§2) To carry out the experiment, freshly prepared organs of male animals were used in each case. The trachea was divided into its rings, of which 5 tracheal rings in each case were linked with silk thread to give a chain, suspended under a tension of 0.5 g in an organ bath containing Tyrode solution at 37° C. through which was bubbled 95% O2/5% CO2, and contracted by addition of histamine dihydrochloride (bath concentration: 3×10^−7 g/ml) in the absence (control experiment) or in the presence of the test substances.
(§3) The lungs were cut longitudinally into 2 to 3 strips, using which the process as described above was carried out. The tension, however, was 1 g and the contraction was induced by PAF or LTD4 at a bath concentration of 10^−9 or 10^−8 g/mi.
(§4) Each experiment comprised the parallel investigation of 6 organ preparations (n=6).
(§5) The assessment of the action of the preparation was carried out with the aid of the IC50 values, which represent that concentration in μg/ml at which the organ contraction produced in the control experiment was reduced by half.

[3] = system: histamine-induced contraction of isolated trachea; experiment: Anticonstrictive action against histamine-induced contraction of isolated tracheal ring chains; parameters: species or system albino guinea pigs; conditions: Cavia porcellus; guinea pig tracheal chain, histamine dihydrochloride 3×10^−7 g/ml, n=6
Excerpt: as §1, §2, §4, §5

[4] = system: LTD4-induced contraction of isolated lung strips; experiment: Anticonstrictive action against LTD4-induced contraction of isolated lung strips; parameters: species or system albino guinea pigs; conditions: Cavia porcellus; guinea pig lung strips, LTD4 10^−8 g/ml, n=6
Excerpt: as §1, §2, §3, §4, §5

[5] = system: eosinophilic granulocytes infiltrating the peritoneal space; experiment: Antigen-induced late-phase reaction: infiltration of eosinophilic granulocytes into the peritoneal space (in vivo); parameters: species or system guinea pigs; conditions: 80 mg/kg daily oral for 15 weeks, human serum antigen i.p. weekly, peritoneal lavage 48 hours later; control animals 42.2 5.8%; p<0.01
Description: (§6) In a chronic long-term experiment on guinea pigs provoked with human serum antigen, the inhibitory action of the compounds of the formula I on the pathologically raised chemotactic infiltration of eosinophilic granulocytes into the peritoneal space (in vivo) and their functional state (ex vivo) was investigated. The animals of the preparation group (n=6) were treated with the test substance at a daily oral dose of 80 mg/kg for 15 weeks, while the animals of the control group (n=6) received the vehicle (carboxymethylcellulose). After the third week of treatment, all 12 animals were provoked by weekly intraperitoneal administration of 1 ml of human serum antigen and 48 hours later in each case subjected to a peritoneal lavage with 50 ml of 5% strength glucose solution in which the number of infiltrated eosinophils and, after their isolation on discontinuous Percoll density gradients (purity >95%; V ability >98%), the reactivity to PAF and C5a were determined in a comparison between the two animal collectives by flow cytometry with the aid of actin polymerization and by means of the Boyden chamber technique.

[6] = system: human eosinophilic granulocytes; experiment: Inhibition of eosinophil activation by late-phase mediators, lucigenin-dependent chemiluminescence; type: cell-based; conditions: 0.5 h, test substance 100 μM, human eosinophils, CL over 30 minutes
Excerpt: The inhibitory action of the xanthines of formula I on the activation ability of human eosinophilic granulocytes by means of the late-phase mediators IL-5, GM-CSF, C5a and PAF was investigated with the aid of the lucigenin-dependent chemiluminescence (CL) reaction.
For this purpose, purified eosinophils were obtained from venous human blood according to known processes (Arch. Dermatol. Res. (1987) 279: 470-477 and J. Invest. Dermatol. (1986) 86: 523-528), pretreated with the test substances at the concentration 100 μM or with pure water (positive control (A)) at 37° C. for 10 minutes and then activated with IL-5 (10^2 U/ml), GM-CSF (10^3 U/ml), C5a (10^−7 M) or PAF (10^−6 M) or treated with water for the determination of the basal activity (B). The CL reaction was monitored over the course of 30 minutes measuring at 37° C. The residual activity of the cells pretreated with the test substances was calculated according to the following formula in percent of that of the positive control: [formula]
CLX describes the activity after stimulation of the cells pretreated with the xanthines,
CLA describes the activity after stimulation of the cells pretreated with water and
CLB describes the basal activity of unstimulated cells pretreated with water.

[7] = system: eosinophilic granulocytes; experiment: Antigen-induced late-phase reaction: ex vivo actin polymerization of eosinophils (flow cytometry); type: in vivo, guinea pigs; conditions: PAF 10 nM, eosinophils of animals treated with 80 mg/kg daily oral
Description: as §6

[8] = system: eosinophilic granulocytes; experiment: Antigen-induced late-phase reaction: ex vivo chemotactic migration of eosinophils (Boyden chamber technique); type: in vivo, guinea pigs; conditions: eosinophils of animals treated with 80 mg/kg daily oral, compared with control animals, p<0.05
Description: as §6

[9] = read-out: Protected animals after i.v. administration, % proportion
[10] = read-out: Protected animals after i.v. administration, number (converted)
[11] = C5a 10^−7 M, read-out: Residual activity in % of the positive control A after stimulation with C5a
[12] = GM-CSF 10^3 U/ml, read-out: Residual activity in % of the positive control A after stimulation with GM-CSF
[13] = IL-5 10^2 U/ml, read-out: Residual activity in % of the positive control A after stimulation with IL-5
[14] = PAF 10^−6 M, read-out: Residual activity in % of the positive control A after stimulation with PAF

| melting point [°C] | IC50 [2] [µg/mL] | IC50 [3] [µg/mL] | IC50 [4] [µg/mL] | SMILES | responders at 10 mg/kg [1, 9] [%] | responders at 10 mg/kg [1, 10] [%] | responders at 25 mg/kg [1, 9] [%] | responders at 25 mg/kg [1, 10] [%] | Number of eosinophils which migrated into the peritoneal space [5] [%] | activity at 100 µM [6, 11] [%] | activity at 100 µM [6, 12] [%] | activity at 100 µM [6, 13] [%] | activity at 100 µM [6, 14] [%] | Initial phase (<10s) of actin polymerization induced by PAF [7] | Chemotactic migration of eosinophils induced by C5a [8] | Chemotactic migration of eosinophils induced by PAF [8] |
| --- | --- | --- | --- | --- | --- | --- | --- | --- | --- | --- | --- | --- | --- | --- | --- | --- |
| 203 to 205 |  |  |  | Cn1c(=O)n(CCC(C)(C)O)c(=O)c2[nH]cnc21 [Example 3, 1-(3-Hydroxy-3-methylbutyl)-3-methylxanthine] |  |  |  |  |  |  |  |  |  |  |  |  |
| 188 to 189 | 3 (≈ 11.3 µM) | 30 (≈ 113 µM) | 10 (≈ 37.6 µM) | Cn1c(=O)n(CCCC(C)(C)O)c(=O)c2[nH]cnc21 [Example 5, 1-(4-hydroxy-4-methylpentyl)-3-methylxanthine] |  |  |  |  |  |  |  |  |  |  |  |  |
| 192 to 193 | 10 to 30 (≈ 35.7 to 107 µM) | 10 to 30 (≈ 35.7 to 107 µM) | 10 to 30 (≈ 35.7 to 107 µM) | Cn1c(=O)n(CCCCC(C)(C)O)c(=O)c2[nH]cnc21 [Example 7, 1-(5-Hydroxy-5-methylhexyl)-3-methylxanthine] | 33 | 33.3 | 80 | 80 | 34.9 | 19 | 63 | 42 | 17 | significantly decreased | significant reduction | significant reduction |
| 181 to 182 | 6 (≈ 20.2 µM) | 10 to 30 (≈ 33.7 to 101 µM) | 10 (≈ 33.7 µM) | Cn1c(=O)n(CCCCC(C)(O)CO)c(=O)c2[nH]cnc21 (stereo not shown) [Example 8, 1-(5,6-Dihydroxy-5-methylhexyl)-3-methylxanthine] | 50 | 50 | 50 | 50 |  |  |  |  |  |  |  |  |
| 169 to 170 | 10 (≈ 34 µM) | 10 to 30 (≈ 34 to 102 µM) | 10 to 30 (≈ 34 to 102 µM) | CCC(C)(O)CCCCn1c(=O)c2[nH]cnc2n(C)c1=O (stereo not shown) [Example 9, 1-(5-Hydroxy-5-methylheptyl)-3-methylxanthine] | 67 | 66.7 | 83 | 83.3 |  |  |  |  |  |  |  |  |
| 180 to 182 |  |  |  | CCn1c(=O)n(CCCCC(C)(C)O)c(=O)c2[nH]cnc21 [Example 10, 3-Ethyl-1-(5-hydroxy-5-methylhexyl)xanthine] |  |  |  |  |  |  |  |  |  |  |  |  |
| 165 to 166 |  |  |  | CCn1c(=O)n(CCCCC(C)(O)CC)c(=O)c2[nH]cnc21 (stereo not shown) [Example 11, 3-Ethyl-1-(5-hydroxy-5-methylheptyl)xanthine] |  |  |  |  |  |  |  |  |  |  |  |  |
| 166 to 167 | 3 to 6 (≈ 10.2 to 20.4 µM) | 3 to 10 (≈ 10.2 to 34 µM) | 6 to 10 (≈ 20.4 to 34 µM) | Cn1c(=O)n(CCCCCC(C)(C)O)c(=O)c2[nH]cnc21 [Example 12, 1-(6-Hydroxy-6-methylheptyl)-3-methylxanthine] | 50 | 50 | 67 | 66.7 |  |  |  |  |  |  |  |  |

The remaining lines, values behind:

| SMILES | melting point [°C] | IC50 [2] [µg/mL] | IC50 [3] [µg/mL] | IC50 [4] [µg/mL] | responders at 10 mg/kg [1, 9] [%] | responders at 10 mg/kg [1, 10] [%] | responders at 25 mg/kg [1, 9] [%] | responders at 25 mg/kg [1, 10] [%] | Number of eosinophils which migrated into the peritoneal space [5] [%] | activity at 100 µM [6, 11] [%] | activity at 100 µM [6, 12] [%] | activity at 100 µM [6, 13] [%] | activity at 100 µM [6, 14] [%] | Initial phase (<10s) of actin polymerization induced by PAF [7] | Chemotactic migration of eosinophils induced by C5a [8] | Chemotactic migration of eosinophils induced by PAF [8] |
| --- | --- | --- | --- | --- | --- | --- | --- | --- | --- | --- | --- | --- | --- | --- | --- | --- |
| Cn1c(=O)n(CC(C)(C)O)c(=O)c2[nH]cnc21 [Example 1, 1-(2-Hydroxy-2-methylpropyl)-3-methylxanthine] | 215 to 217 |  |  |  |  |  |  |  |  |  |  |  |  |  |  |  |
| CCn1c(=O)n(CC(C)(C)O)c(=O)c2[nH]cnc21 [Example 2, 3-Ethyl-1-(2-hydroxy-2-methylpropyl)xanthine] |  |  |  |  | 33 | 33.3 | 67 | 66.7 |  |  |  |  |  |  |  |  |
| CCn1c(=O)n(CCC(C)(C)O)c(=O)c2[nH]cnc21 [Example 4, 3-Ethyl-1-(3-hydroxy-3-methylbutyl)xanthine] | 241 to 243 | 1 to 3 (≈ 3.76 to 11.3 µM) | 10 (≈ 37.6 µM) |  | 17 | 16.7 | 50 | 50 |  |  |  |  |  |  |  |  |
| CCn1c(=O)n(CCCC(C)(C)O)c(=O)c2[nH]cnc21 [Example 6, 3-Ethyl-1-(4-hydroxy-4-methylpentyl)xanthine] | 214 to 216 | 3 (≈ 10.7 µM) | 30 (≈ 107 µM) | 1 to 3 (≈ 3.57 to 10.7 µM) |  |  |  |  |  |  |  |  |  |  |  |  |
| CCn1c(=O)n(CCCCCC(C)(C)O)c(=O)c2[nH]cnc21 [Example 13, 3-Ethyl-1-(6-hydroxy-6-methylheptyl)xanthine] | 163 to 165 | 1 (≈ 3.24 µM) | 10 to 30 (≈ 32.4 to 97.3 µM) |  |  |  |  |  |  |  |  |  |  |  |  |  |
| CC(=O)CCCCn1c(=O)c2c(ncn2C)n(C)c1=O [Pentoxifylline, 3,7-dimethyl-1-(5-oxohexyl)xanthine, reference compound] |  | 3 (≈ 10.8 µM) | 30 to 60 (≈ 108 to 216 µM) | 30 to 60 (≈ 108 to 216 µM) | 17 | 16.7 | 33 | 33.3 |  | 56 | 70 | 57 | 45 |  |  |  |
| CCOCn1cnc2c1c(=O)n(CCCCC(C)(C)O)c(=O)n2C [Torbafylline, 7-ethoxymethyl-1-(5-hydroxy-5-methylhexyl)-3-methylxanthine, reference compound] |  | 3 to 6 (≈ 8.87 to 17.7 µM) | 60 (≈ 177 µM) | 10 to 30 (≈ 29.6 to 88.7 µM) | 0 | 0 | 0 | 0 |  | 51 | 125 | 58 | 58 |  |  |  |
